Numbering of substitutions follows the chain as printed.
How the values were obtained:
[1] = molecular target: T1, binding of 125I-sauvagine to the cerebellum (Rattus norvegicus, UniProt P35353); experiment: In vivo potency assessment using ex vivo binding; conditions: oral route
T1 construct: from tissue; host or cells: rat cerebellum
T1 sequence (P35353 24-415): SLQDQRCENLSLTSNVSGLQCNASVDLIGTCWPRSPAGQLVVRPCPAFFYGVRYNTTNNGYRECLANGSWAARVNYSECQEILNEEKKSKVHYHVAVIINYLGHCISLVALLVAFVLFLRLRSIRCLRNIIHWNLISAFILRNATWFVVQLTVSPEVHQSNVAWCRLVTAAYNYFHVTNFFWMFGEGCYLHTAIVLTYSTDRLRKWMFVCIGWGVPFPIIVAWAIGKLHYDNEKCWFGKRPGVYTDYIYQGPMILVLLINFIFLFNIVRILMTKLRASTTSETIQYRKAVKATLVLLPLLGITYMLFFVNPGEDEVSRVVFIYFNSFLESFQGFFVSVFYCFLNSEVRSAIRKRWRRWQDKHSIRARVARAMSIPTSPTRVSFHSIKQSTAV
Description: To assess in vivo potency, a compound of the present invention is evaluated using ex vivo binding. Using the procedures as provided in D. R. Gehlert et al., EJP 509: 145-153 (2005), a compound is administered to a rat via the oral route.

human CRF1 = molecular target: T2, human CRF1 (Homo sapiens, UniProt P34998); experiment: CRF1 filter binding assay; conditions: HEK-hCRF1 membranes; 125I-Sauvagine (4 nM) in roller/adherent cells; read-out: Ki (inhibition constant), inhibition of binding of 125I-Sauvagine
T2 construct: expressed in transfected cells
T2 sequence (P34998 24-415): T1 sequence (P35353 24-415) with R6H, N9S, T13A, V16I, V153M, A163G, V209I, H229Y, R356H
Description: The limitations of plasmid-based human CRF1 expression, in terms of generating a recombinant cell line with sufficient receptor density to develop a binding assay, are overcome by using a Phoenix retroviral expression system licensed from Stanford. The stable HEK-hCRF1 cell line is used to prepare membranes and binding reactions (200 μl) are set up as follows: 50 μl of ^125I-sauvagine (0.2 nM final), 50 μl compound and 100 μl CRF1 membrane (25 μg/reaction). The reactions are incubated at room temperature for 2 hours and then terminated by filtration through pre-treated FB Millipore glass fiber filter plates (96 well). The plates are wash twice with ice-cold assay buffer (50 mM tris, 12.5 mM NaCl, 1 mM EDTA, 10 mM MgCl2, 0.05% BSA, pH 7.2), air dried over night and counted with 100 μl Microscint 40 in a MicroBeta counter. Non-specific binding (NSB) is determined in the presence of 0.5 μM non-labeled sauvagine. Triplicate determinations are typically run and the median data points plotted by Graph Pad Prism.
Using this assay, the exemplified compounds of the present invention (except for Examples 2, 3, 6, 7, and 8, which were used as intermediates for other Examples and were not tested.) inhibit the binding of ^125I-Sauvagine (4 nM) in roller/adherent cells with a Ki (inhibition constant)≦500 nM.

human CRF2 = molecular target: T3, human CRF2 (Homo sapiens, UniProt Q13324); experiment: CRF2 filter binding assay; conditions: HEK-hCRF2 membranes; compound concentration 50 μM
T3 construct: expressed in transfected cells
T3 sequence (Q13324 1-411): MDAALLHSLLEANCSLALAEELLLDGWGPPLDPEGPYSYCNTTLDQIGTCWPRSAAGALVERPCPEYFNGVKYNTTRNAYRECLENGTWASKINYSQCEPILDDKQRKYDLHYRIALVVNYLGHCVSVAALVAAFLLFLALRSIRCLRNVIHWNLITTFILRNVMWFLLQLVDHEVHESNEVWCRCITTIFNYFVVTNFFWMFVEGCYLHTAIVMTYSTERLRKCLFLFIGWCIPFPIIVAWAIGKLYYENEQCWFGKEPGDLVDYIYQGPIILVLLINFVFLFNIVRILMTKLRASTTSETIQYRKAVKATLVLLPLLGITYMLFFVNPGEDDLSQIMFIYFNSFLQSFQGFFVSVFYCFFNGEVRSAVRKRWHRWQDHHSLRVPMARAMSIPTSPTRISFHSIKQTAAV
Description: The limitations of plasmid-based human CRF2 expression, in terms of generating a recombinant cell line with sufficient receptor density to develop a binding assay, are overcome by using a Phoenix retroviral expression system licensed from Stanford. The stable HEK-hCRF2 cell line is used to prepare membranes and binding reactions (200 μl) are set up as follows: 50 ul of ^125I-sauvagine (0.2 nM final concentration), 50 μl compound and 100 μl CRF2 membrane (25 μg/reaction). The reactions are incubated at room temperature for 2 hours and then terminated by filtration through pre-treated FB Millipore glass fiber filter plates (96 well). The plates are washed twice with ice-cold assay buffer (50 mM tris, 12.5 mM NaCl, 1 mM EDTA, 10 mM MgCl2, 0.05% BSA, pH 7.2), air dried over night and counted with 100 μl Microscint 40 in a MicroBeta counter. Non-specific binding (NSB) is determined in the presence of 0.5 μM non-labeled sauvagine. Alternatively, compounds are evaluated using a Scintillation Proximity assay. […] Bound radioactivity is assessed using a Wallac Trilux scintillation counter. Binding is assessed typically using triplicate determinations and the median data points plotted by Graph Pad Prism. […]

inhibition at 10 mg/kg [1]: 74%
Ki (human CRF1): 4.4 nM
inhibition at 50 µM (human CRF2): 39%
Compound: CCCC(CCC)c1cc(C)nc2c(-c3sc(-c4ncnn4C)cc3Cl)c(C)nn12 [Example 20, 3-[3-Chloro-5-(2-methyl-2H-[1,2,4]triazole-3-yl)-thiophene-2-yl]-7-(1-propyl-butyl)-2,5-dimethyl-pyrazolo[1,5-a]pyrimidine]

Reference: patent publication US8110580B2, “Thiophene pyrazolopyrimidine compounds” (Eli Lilly and Company, priority 2006, dated 2012)
